Laboratory results from patent EP1000025B1, “SUBSTITUTED NAPHTHOPYRANS” (TRANSITIONS OPTICAL, INC., priority 1997, dated 1998).

Test: Photochromic response of test square polymerizates on an optical bench
Assay type: physicochemical
Settings: for ΔOD@ SATURATION: UV exposure continued for 20 minutes; for ΔOD@ SATURATION / ΔOD/MIN SENSITIVITY: test squares by method 1, 75°F (23.9°C); for ΔOD/MIN SENSITIVITY: measured over the first five (5) seconds of UV exposure, expressed on a per minute basis; for Bleach (T1/2): time for absorbance of the activated form to reach one half the highest absorbance at room temperature (75°F, 23.9°C) after removal of activating light, method 1; for LAMBDA MAX (VISIBLE): wavelength in the visible spectrum of maximum absorption of the activated (colored) form, diethylene glycol bis(allyl carbonate) composition
Experimental: Testing was done with the photochromic naphthopyrans of the Examples incorporated or imbibed into test square polymerizates by one of two different methods. In Method I, the photochromic naphthopyrans of the Examples were incorporated into polymeric samples. The quantity of naphthopyran calculated to yield a 1.5 times 10^-3 molal solution was added to a flask containing 50 grams of a monomer blend of 4 parts ethoxylated bisphenol A dimethacrylate (BPA 2EO DMA), 1 part poly(ethyleneglycol) 600 dimethacrylate, and 0.033 weight percent 2,2'-azobis(2-methyl propionitrile) (AIBN). The naphthopyrans were dissolved into the monomer blend by stirring and gentle heating, if necessary. After a clear solution was obtained, it was poured into a flat sheet mold having the interior dimensions of 2.2 mm x 6 inches (15.24 cm) x 6 inches (15.24 cm). The mold was sealed and placed in a horizontal air flow, programmable oven set to increase the temperature from 40°C. to 95°C. over a 5 hour interval, hold the temperature at 95°C. for 3 hours and then lower it to 60°C. for at least 2 hours before the end of the curing cycle. After the molds were opened, the polymer sheets were cut using a diamond blade saw into 2 inch (5.1 centimeters) test squares.
In Method II, the photochromic naphthopyran was imbibed into test square polymerizates prepared from a diethylene glycol bis(allyl carbonate) composition. The test squares measured 1/8 inch (0.3 centimeters) x 2 inches (5.1 centimeters) x 2 inches (5.1 centimeters). In the imbibition process, the photochromic naphthopyran was dissolved to form a 10 weight percent solution in a 1:9 mixture of ethyl cellulose:toluene. The solution was then spin coated onto the test squares and allowed to dry. Samples were then heated in a hot-air oven at 135-155°C for a period of time sufficient to thermally transfer the photochromic into the test squares. […] After cooling, the ethyl cellulose/toluene resin film was removed from the test squares by washing with acetone.
The photochromic test squares were tested for photochromic response rates on an optical bench. Prior to testing on the optical bench, the photochromic test squares were exposed to 365 nanometer ultraviolet light for about 15 minutes to activate the photochromic compounds and then placed into a 76°C oven for about 15 minutes to bleach or inactivate the photochromic compounds. The test squares were then cooled to room temperature, exposed to fluorescent room lighting for at least 2 hours and then kept covered for at least 2 hours prior to testing on an optical bench maintained at 75°F (23.9°C). The bench was fitted with a 150 watt Xenon arc lamp, a remote controlled shutter, a copper sulfate bath acting as a heat sink for the arc lamp, a Schott WG-320 nm cut-off filter which removes short wavelength radiation; neutral density filter(s) and a sample holder in which the square to be tested was inserted. A collimated beam of light from a tungsten lamp was passed through the square at a small angle normal to the square. After passing through the square, the light from the tungsten lamp was directed through a photopic filter attached to a detector. The photopic filter passes wavelengths such that the detector mimics the response of the human eye. The output signals from the detector(s) were processed by a radiometer.
Change in optical density (ΔOD) was determined by inserting a test square in the bleached state into the sample holder, adjusting the transmittance scale to 100%, opening the shutter from the Xenon lamp to provide ultraviolet radiation to change the test square from the bleached state to an activated (i.e., darkened) state, measuring the transmittance in the activated state, and calculating the change in optical density according to the formula Δ OD=log(100/%Ta) where %Ta is the percent transmittance in the activated state and the logarithm is to the base 10. […]

SMILES | ΔOD@ SATURATION | ΔOD/MIN SENSITIVITY | Bleach (T1/2) | LAMBDA MAX (VISIBLE)
COC(=O)c1c2c(c3ccccc3c1O)OC(c1ccccc1)(c1ccc(N3CCOCC3)cc1)C=C2 (stereo not drawn) [Example 1, 2-(4-morpholinophenyl)-2-phenyl-5-methoxycarbonyl-6-hydroxy-2H-naphtho[1,2-b]pyran] | 1.36 | 0.64 | 3.22 min | 511
COC(=O)c1c2c(c3ccccc3c1OC)OC(c1ccccc1)(c1ccc(N3CCOCC3)cc1)C=C2 (stereo not drawn) [Example 2, 2-(4-morpholinophenyl)-2-phenyl-5-methoxycarbonyl-6-methoxy-2H-naphtho[1,2-b]pyran] | 0.95 | 0.29 | 4.87 min | 541
COC(=O)c1c2c(c3ccccc3c1OC(C)=O)OC(c1ccccc1)(c1ccc(N3CCOCC3)cc1)C=C2 (stereo not drawn) [Example 3, 2-(4-morpholinophenyl)-2-phenyl-5-methoxycarbonyl-6-acetoxy-2H-naphtho[1,2-b]pyran] | 0.31 | 0.24 | 1.47 min | 545
COC(=O)c1c2c(c3ccccc3c1OC(C)=O)OC(c1ccccc1)(c1ccc(N(C)C)cc1)C=C2 (stereo not drawn) [Example 4, 2-(4-dimethylaminophenyl)-2-phenyl-5-methoxycarbonyl-6-acetoxy-2H-naphtho[1,2-b]pyran] | 0.30 | 0.27 | 1.17 min | 591
COC(=O)c1c2c(c3ccccc3c1C)OC(c1ccccc1)(c1ccc(N(C)C)cc1)C=C2 (stereo not drawn) [Example 5, 2-(4-dimethylaminophenyl)-2-phenyl-5-methoxycarbonyl-6-methyl-2H-naphtho[1,2-b]pyran] | 0.51 | 0.20 | 3.33 min | 584
COC(=O)c1c2c(c3ccccc3c1OC(C)=O)OC(c1ccc(N(C)C)cc1)(c1ccc(N(C)C)cc1)C=C2 [Example 6, 2,2-bis(4-dimethylaminophenyl)-5-methoxycarbonyl-6-acetoxy-2H-naphtho[1,2-b]pyran] | 0.07 | 0.16 | 0.317 min | 618
